Values quoted from earlier work as cited in PMC7395068, “The evolution of strategies to minimise the risk of human drug-induced liver injury (DILI) in drug discovery and development” (Archives of Toxicology, 2020).
Where two headings read alike, the source gives them in different places.

Assays:
[1] = test system: THLE-Null and THLE-3A4 cells; details: In vitro Assay; ref Gustafsson 2014; cited from earlier work
[2] = ref Chen 2016; cited from earlier work
[3] = test system: HepG2 cells, primary human hepatocytes; details: In vitro Assay; ref Garside 2014; cited from earlier work
[4] = cited from earlier work
[5] = test system: primary human hepatocytes, NIH3T3 fibroblasts, BSEP, CYP3A4; details: In vitro Assay; ref Schadt 2015; cited from earlier work
rBsep = details: In vitro Assay; ref Dawson 2012; cited from earlier work
HepG2 cells = details: In vitro Assay; ref Persson 2013; cited from earlier work
PHH spheroids = details: cited from earlier work; for hLiMTs ATP <20 x Cmax: In vitro Assay, ref Vorrink 2018
[6] = test system: isolated mouse liver mitochondria; details: In vitro Assay; ref Porceddu 2012; cited from earlier work
human hepatocytes = details: In vitro Assay; ref Xu 2008; cited from earlier work
[7] = test system: THLE or HepG2 cells, isolated mitochondria, BSEP; details: In vitro Assay; ref Aleo 2019; cited from earlier work

SMILES | THLE-Null [1] | THLE-Null/3A4 [1] | DILI +VE (5-8), DILI -VE (-4) [2] | DILI severity category [2] | Cluster 1-6 +VE Assay [3] | In vivo DILI ([4]; […]) | In vivo DILI ([4]; ref Dawson 2012) | In vivo DILI ([4]; ref Garside 2014) | In vivo DILI ([4]; ref Gustafsson 2014) | In vivo DILI ([4]; ref Persson 2013) | In vivo DILI ([4]; ref Vorrink 2018) | Inhibition of rBsep cutoff<1& cmax u>.2 (rBsep) | Inhibition of rBsep cutoff<3 (rBsep) | Cluser analysis (HepG2 cells) | Structural based (HCI) (HepG2 cells) | hLiMTs ATP <20 x Cmax (PHH spheroids) | In vivo DILI ([4]; ref Xu 2008) | Structural based (HCI) (human hepatocytes) | other results
CCCN(CCC)C(=O)Cc1c(-c2ccc(Cl)cc2)nc2ccc(Cl)cn12 [alpidem] | -VE | -VE | +VE | vMost-DILI-Concern | +VE | +VE | +VE | +VE | +VE | +VE | +VE | +VE | +VE | +VE | +VE | +VE (IC20 < 20 × Cmax.tot cut-off) |  |  | In vivo DILI ([4]; ref Porceddu 2012): +VE; In vivo DILI ([4]; ref Schadt 2015): +VE; Cellular toxicity (3T3 cells) [5]: -VE; Combined Assay [5]: -VE; GSH adduct HML [5]: +VE; Hepatocyte cellular toxicity [5]: +VE; MitoTox 3T3 [5]: -VE; TDI CYP3A4 [5]: -VE; hBSEP inhibition [5]: +VE; in vitro data EC2<=1x Cmax [6]: +VE; in vitro data EC20<=2uM [6]: +VE
NNc1nnc(NN)c2ccccc12 [dihydralazine] | -VE | -VE |  |  | +VE |  | +VE | +VE | +VE |  | +VE | -VE | -VE |  |  | +VE (IC20 < 20 × Cmax.tot cut-off) |  |  | 
NCCc1ccc(O)c(O)c1 [dopamine] | -VE | -VE | -VE | vNo-DILI-Concern | -VE |  | -VE | -VE | -VE |  | -VE | -VE | -VE |  |  | -VE | -VE | -VE | 
O=C(OCC(O)CO)c1ccccc1Nc1ccnc2cc(Cl)ccc12 (stereo not shown) [glafenine] | -VE | +VE | +VE | vMost-DILI-Concern | +VE | +VE | +VE | +VE | +VE |  | +VE | +VE | +VE |  |  | -VE | +VE | -VE | 
CC(C)NNC(=O)c1ccncc1 [iproniazid, reference compound] | -VE | -VE | +VE | vMost-DILI-Concern | -VE | +VE | +VE | +VE | +VE | +VE | +VE | -VE | -VE | -VE | +VE | -VE |  |  | Partition Hybrid HRM Score [7]: -VE; Ro2 Hybrid HRM Score [7]: -VE; In vivo DILI ([4]; ref Aleo 2019): +VE; response of PHH spheroids at 5 × Cmax.tot (PHH spheroids; ATP, 14 days, not positive at higher concentrations, ref Vorrink et al. 2018): positive
CC(=O)Nc1ccc(OCC(O)CNC(C)C)cc1 (stereo not shown) [practolol] | -VE |  |  |  | -VE |  |  |  |  |  |  | -VE | -VE |  |  | -VE |  |  | 
